Results on five compounds are retold here after paper PMC11778240, “Synthesis and preclinical evaluation of tigilanol tiglate analogs as latency-reversing agents for the eradication of HIV” (Science Advances, 2025).

One test deals with T1, PKC-β-I (Homo sapiens, UniProt P05771).
T1 construct: purchased Invitrogen
Briefly: Cell-free PKC competition binding assay against 3H-PDBu. Particulars: for PKC binding affinity and selectivity in words / decrease in PKC binding affinity / potency compared to EBC-46: PKC-β and PKC-δ; for logKi (best-fit value), PKC-β-I: log of Ki in nM; for PKC-β selectivity: Fig. 7A, PKC-β over PKC-δ. From the text:
(§1) With a diverse library of compounds bearing unique functionalities on the A-, B-, and C-rings (Fig. 6), we began to explore how these modifications affect PKC binding (Fig. 7A), NF-κB activation (Fig. 7B), cell permeation and PKC translocation (Fig. 7, C and D), and latency reversal in J-Lat cells (Fig. 8). […] We conducted this assay with phosphatidyl serine vesicles in solution that mimic the cellular membrane and play a critical role in the binding of small molecules to the PKC C1 domain (Fig. 7A) ([64]).
(§2) Cell-free PKC Binding Assay
The protein kinase C (PKC) affinity of EBC-46 and EBC-46 analogs was determined via […]
entails a glass-fiber filtration method to determine bound radioligand. The method of determining the radioligand Kd is also described.
(§3) Tris HCl (Fisher, ≥ 99%, stored at room temperature)
(§4) Phosphatidylserine (Avanti Polar Lipids, porcine, 25 mg/mL CHCl3 solution, stored at - […]
(§5) Bovine serum albumin (Sigma -Aldrich, ≥ 98%, globulin free, protease free, stored at 4 […]
Human PKC-β-I-GST fusion protein (Invitrogen, aliquoted and stored at -78 °C) Human PKC-δ-GST fusion protein (Invitrogen, aliquoted and stored at -78 °C) Glass-fiber filters (Whatman GF/B) […]
(§6) a final concentration of 500 nM.
(§7) Preparation of phosphatidylserine (PS) vesicles :
(§8) For every 96 samples, 3.5 mg phosphatidylserine (140 μL) (25 mg/mL CHCl3 solution) was concentrated by removing chloroform under reduced pressure. The phosphatidylserine residue was resuspended in freshly prepared PKC binding assay buffer (3.5 mL), capped, and then thoroughly mixed by alternating between sonicating and vortexing, in 10 second intervals for 1 minute or until a cloudy white mixture (Branson Sonifier 250, power = 2, 50% duty cycle). The resulting cloudy white mixture (1 mg/mL) was stored on ic e until use.
(§9) Preparation of the "master mix" Solution :
(§10) Constituent Stock concentration (final concentration/amount in “master mix”):
(§11) PS vesicles (0.103 mg/mL)
(§12) Deionized H2O - Final vol of 30 mL
(§13) Preparation of PKC binding assay buffer:
(§14) For every 96 samples, to a 50 mL polypropylene tube was added Tris -HCl (pH 7.4, 1 M, 1.5 mL), KCl (1 M, 3 mL), CaCl2 (0.1 M, 35 μL – conventional isoforms only), and bovine serum albumin (60 mg). This mixture was diluted to 30 mL with deionized H2O and mixed gently. The buffer was […]
(§15) Preparation of PKC isoform solution:
(§16) For every 96 samples, PKC isoform solution was prepared by dissolving a 4 μg aliquot of the indicated recombinant human PKC isoform into 26.5 mL of PKC binding assay buffer. The diluted PKC was stored on ice for immediate use.
(§17) Preparation of PKC “master mix” solution:
(§18) To the PKC-isoform solution was added 1 mg/mL PS vesicles solution (3.30 mL), and 500 nM […]
(§19) The resulting “master mix” solution was vortexed and stored on […]
(§20) Preparation of analog compound dilutions:
(§21) Compound dilutions were prepared with filtered DMSO by serially diluting from a chosen "high" concentration. For the saturation binding experiment (radioligand Kd determination), the maximum radioligand concentration used was 4.0 nM with 2-fold dilutions between data points […]
(§22) the middle of the binding curve.
For the competition binding experiment (analog Ki determination), 7 or 14 concentrations were used to define the inhibition curve, and compounds dilutions changed by factors of 2 or √2 between data points. The concentrations were chosen such that the in-assay concentration for the data points in the middle of the binding curve were approximately equal to the IC50 of the compound (if the IC50 is unknown, an exploratory binding assay is recommended prior to Ki determination). For assays with one compound per sheet, the √2-fold dilutions were prepared for the concentrations in […]
PKC binding assay protocol (Saturation -binding experiment and Competition -binding experiment)
1) Glass-fiber filters were prepared by soaking them in a solution of aqueous polyethyleneimine

A further test addresses T2, PKC-δ (Homo sapiens, UniProt Q05655).
T2 construct: purchased Invitrogen (Sinobiological for the SUW402 experiment)
The test is described as above. Particulars: for logKi (best-fit value), PKC-δ: log of Ki in nM.
Excerpt: as §1, §2
The protein kinase C (PKC) affinity of EBC-46 and EBC-46 analogs was determined via competition with 3H-phorbol-12,13-dibutyrate (3H-PDBu) as described below. This procedure entails a glass-fiber filtration method to determine bound radioligand. The method of determining the radioligand Kd is also described.
as §3, §4, §5
Human PKC-β-I-GST fusion protein (Invitrogen, aliquoted and stored at -78 °C) Human PKC-δ-GST fusion protein (Invitrogen, aliquoted and stored at -78 °C) Glass-fiber filters (Whatman GF/B)
Preparation of 3H -PDBu solution : […]
as §6, §7, §8, §9, §10, §11, §12, §13, §14, §15, §16, §17, §18, §19, §20, §21
isoforms ranges from 0.3 – 0.8 nM. […]
as §22
For the competition binding experiment (analog Ki determination), 7 or 14 concentrations were used to define the inhibition curve, and compounds dilutions changed by factors of 2 or √2 between data points. The concentrations were chosen such that the in-assay concentration for the data points in the middle of the binding curve were approximately equal to the IC50 of the compound (if the IC50 is unknown, an exploratory binding assay is recommended prior to Ki determination). For assays with one compound per sheet, the √2-fold dilutions were prepared for the concentrations in the middle of the curve (e.g., for SUW400, the analog dilutions used were 15000 nM, 7500 nM, […]
PKC binding assay protocol (Saturation -binding experiment and Competition -binding experiment) […]

[1] abbreviates: HotNM 2.5, HotKdNM 0.37, supplement fit, read-out: Ki (best-fit value), PKC-β-I.
[2] abbreviates: HotNM 2.5, HotKdNM 0.62, supplement fit, read-out: Ki (best-fit value), PKC-δ.
The mark [3] stands for this setting: competition against radiolabeled PDBu, Fig. 7A and text, read-out: Ki PKC-β.
The mark [4] stands for this setting: competition against radiolabeled PDBu, Fig. 7A and text, read-out: Ki PKC-δ.

Several values for one entry are separate records, joined by “and”; a condition that tells them apart may be missing. Equal values may be shown once. Read-outs that look alike come from different tables or passages of the source.

T2 sequence (Q05655 whole entry): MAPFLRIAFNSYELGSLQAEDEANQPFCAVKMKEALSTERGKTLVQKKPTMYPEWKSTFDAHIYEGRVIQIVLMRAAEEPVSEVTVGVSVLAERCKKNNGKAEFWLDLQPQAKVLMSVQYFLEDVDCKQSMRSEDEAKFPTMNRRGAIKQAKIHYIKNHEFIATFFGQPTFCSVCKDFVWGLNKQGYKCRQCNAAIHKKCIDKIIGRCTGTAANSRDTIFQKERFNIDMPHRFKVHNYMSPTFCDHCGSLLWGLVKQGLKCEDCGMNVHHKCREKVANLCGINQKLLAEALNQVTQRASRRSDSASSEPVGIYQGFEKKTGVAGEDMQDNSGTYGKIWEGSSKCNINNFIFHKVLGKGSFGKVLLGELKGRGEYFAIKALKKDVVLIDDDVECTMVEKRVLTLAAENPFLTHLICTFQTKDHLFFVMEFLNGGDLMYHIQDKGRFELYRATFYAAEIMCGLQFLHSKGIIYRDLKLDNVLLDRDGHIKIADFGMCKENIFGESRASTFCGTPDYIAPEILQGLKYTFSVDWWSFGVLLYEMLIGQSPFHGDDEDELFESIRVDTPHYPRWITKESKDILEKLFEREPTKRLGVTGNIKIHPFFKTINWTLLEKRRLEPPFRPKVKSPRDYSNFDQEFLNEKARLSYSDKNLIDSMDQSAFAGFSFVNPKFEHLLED
T1 sequence (P05771 whole entry): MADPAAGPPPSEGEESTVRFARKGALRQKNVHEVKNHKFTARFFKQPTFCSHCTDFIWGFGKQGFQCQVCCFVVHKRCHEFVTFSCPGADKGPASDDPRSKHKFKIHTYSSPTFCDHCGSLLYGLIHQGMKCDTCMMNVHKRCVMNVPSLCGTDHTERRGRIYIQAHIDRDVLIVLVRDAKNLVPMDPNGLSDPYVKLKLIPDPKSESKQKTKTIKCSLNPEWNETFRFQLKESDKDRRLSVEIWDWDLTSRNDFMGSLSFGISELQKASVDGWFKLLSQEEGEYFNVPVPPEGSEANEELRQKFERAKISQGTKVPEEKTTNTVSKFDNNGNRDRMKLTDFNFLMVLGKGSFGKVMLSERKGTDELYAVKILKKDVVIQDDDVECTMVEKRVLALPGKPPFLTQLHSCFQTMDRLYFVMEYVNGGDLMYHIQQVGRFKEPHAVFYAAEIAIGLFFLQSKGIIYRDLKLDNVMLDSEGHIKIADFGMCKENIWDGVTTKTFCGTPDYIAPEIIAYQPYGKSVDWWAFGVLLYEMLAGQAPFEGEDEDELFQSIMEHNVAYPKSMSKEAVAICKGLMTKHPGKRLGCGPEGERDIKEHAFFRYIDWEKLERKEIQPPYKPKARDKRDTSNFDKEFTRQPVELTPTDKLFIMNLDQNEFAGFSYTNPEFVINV

Consider `C/C=C(\C)C(=O)O[C@@H]1[C@@H](C)[C@@]2(O)[C@H]([C@@H]3C(C)(C)[C@]13OC(=O)Cc1cccc3ccccc13)[C@@H]1O[C@]1(CO)[C@@H](O)[C@]1(O)C(=O)C(C)=C[C@H]12` [SUW431], for which the “selectivity for PKC-β over PKC-δ” value on PKC-β-I is recorded as 1.4 fold. On PKC-β-I, the “stronger binding for PKC-β compared to EBC-46” value is reported as ~ 20 fold. Also, the Ki (usually the dissociation constant of the complex between target and ligand, obtained from inhibition or displacement) is 0.079 nM at PKC-β-I (setting [1]), 0.079 nM at PKC-β-I (read-out: binding for PKC-β (Ki)), 0.114 nM at PKC-δ (setting [2]) and 0.11 nM at PKC-δ (read-out: binding for PKC-δ (Ki)). Further, the “PKC binding affinity and selectivity in words” value on PKC-β-I is reported as “remarkable affinities in the picomolar range”. In addition, the “logKi (best-fit value), PKC-β-I” value at PKC-β-I (HotNM 2.5, HotKdNM 0.37) was -1.102. In addition, the “stronger binding for PKC-δ compared to EBC-46” value at PKC-δ stood at 30 fold. Besides, on PKC-δ (comparison with literature value), the “greater affinity to PKC-δ than that reported for SUW013” value is given as “approximately 10 fold”. On PKC-δ (HotNM 2.5, HotKdNM 0.62), the “logKi (best-fit value), PKC-δ” value was -0.9424.

Consider `CC[C@H](C)C(=O)O[C@@]12[C@H](OC(=O)N3CCCC3)[C@@H](C)[C@@]3(O)[C@H]([C@@H]1C2(C)C)[C@@H]1O[C@]1(CO)[C@@H](O)[C@]1(O)C(=O)C(C)=C[C@H]13` [SUW424], for which the “selectivity for PKC-β over PKC-δ” value at PKC-β-I is 6 fold. This compound had a PKC-β selectivity on PKC-β-I of 6.1. Besides, the inhibitory constant (Ki) at PKC-β-I (setting [1]) was 27.8 nM; on PKC-β-I (setting [3]), 28 nM and ~25 nM; on PKC-δ (setting [2]) it was 175 nM; on PKC-δ (setting [4]), 170 nM. For the same compound, at PKC-β-I, the “decrease in PKC binding affinity / potency compared to EBC-46” value is more than 10 fold. Further, the “logKi (best-fit value), PKC-β-I” value at PKC-β-I (HotNM 2.5, HotKdNM 0.37) is 1.445. On PKC-δ (HotNM 2.5, HotKdNM 0.62), the “logKi (best-fit value), PKC-δ” value was found to be 2.242.

`C/C=C(\C)C(=O)O[C@@H]1[C@@H](C)[C@]2(O)[C@@H]3C=C(C)C(=O)[C@@]3(O)[C@H](O)C(CO)=C[C@H]2[C@@H]2C(C)(C)[C@]12OC(=O)[C@@H](C)CC` [SUW400] showed a PKC-β selectivity on PKC-β-I of 2.9. Moreover, the Ki was 0.851 nM on PKC-β-I (setting [1]), 0.85 nM on PKC-β-I (setting [3]), 2.53 nM on PKC-δ (setting [2]) and 2.5 nM at PKC-δ (setting [4]). For the same compound, the “PKC binding affinity and selectivity in words” value at PKC-β-I was “nearly identical binding affinity and selectivity compared to EBC-46”. Also, the “logKi (best-fit value), PKC-β-I” value at PKC-β-I (HotNM 2.5, HotKdNM 0.37) is reported as -0.07019. For the same compound, on PKC-δ (HotNM 2.5, HotKdNM 0.62), the “logKi (best-fit value), PKC-δ” value amounted to 0.4034.

On to `C/C=C(\C)C(=O)O[C@@H]1[C@@H](C)[C@@]2(O)[C@H]([C@@H]3C(C)(C)[C@]13OC(=O)N1CCCC1)[C@@H]1O[C@]1(CO)[C@@H](O)[C@]1(O)C(=O)C(C)=C[C@H]12` [SUW421], for which the “selectivity for PKC-β over PKC-δ” value on PKC-β-I worked out at 10 fold. This compound came in with a PKC-β selectivity on PKC-β-I of 9.5. Further, the Ki at PKC-β-I (setting [1]) was 20.1 nM; at PKC-β-I (setting [3]) it was 20 nM and ~25 nM; on PKC-δ (setting [2]) it was 194 nM; on PKC-δ (setting [4]), 190 nM. Further, the “decrease in PKC binding affinity / potency compared to EBC-46” value on PKC-β-I is recorded as more than 10 fold. Besides, the “logKi (best-fit value), PKC-β-I” value at PKC-β-I (HotNM 2.5, HotKdNM 0.37) is given as 1.302. Further, the “logKi (best-fit value), PKC-δ” value on PKC-δ (HotNM 2.5, HotKdNM 0.62) is listed as 2.288.

Regarding `C/C=C(\C)C(=O)O[C@@H]1[C@@H](C)[C@]2(O)[C@@H]3C=C(C)[C@H](OC(=O)C=C(C)C)[C@@]3(O)[C@H](O)C(CO)=C[C@H]2[C@@H]2C(C)(C)[C@]12OC(=O)[C@@H](C)CC` [SUW425], the PKC-β selectivity at PKC-β-I came out at 1.8. Besides, the Ki at PKC-β-I (setting [1]) worked out at 2.61 nM; on PKC-β-I (setting [3]), 2.6 nM; on PKC-δ (setting [2]) it was 4.73 nM; at PKC-δ (setting [4]), 4.7 nM. In addition, at PKC-β-I, the “PKC binding affinity and selectivity in words” value is listed as “approximately the same as EBC-46”. Moreover, on PKC-β-I (HotNM 2.5, HotKdNM 0.37), the “logKi (best-fit value), PKC-β-I” value came to 0.4165. The “logKi (best-fit value), PKC-δ” value on PKC-δ (HotNM 2.5, HotKdNM 0.62) worked out at 0.6748.
